Measured values published in patent US11957143B2, “Highly-soluble rebaudioside D” (SUNTORY HOLDINGS LIMITED, priority 2018, dated 2024).

What was measured:
Format in all cases: physicochemical
[1] = Moisture content of crystalline forms (FIG. 10); settings: sample heating 130° C. in N2, trace moisture analyzer
Description: The “moisture content” herein means the proportion of water contained in the crystal and is the proportion (wt %) of the weight of water based on the weight of the entire crystal. The moisture content of the crystal can be determined, for example, by heating the crystal at a high temperature (for example, 130° C.) under an inert atmosphere, and calculating from the change in weight between before and after the heating. The crystal of Reb. D of the present invention preferably has a moisture content of 0.1 wt % to 2.0 wt %, more preferably 0.2 wt % to 1.2 wt %, further preferably 0.40 wt % to 0.8 wt %.
The crystals of Reb. D in the crystalline form α and the crystalline form β and the control (in a stable form) were provided, and their moisture contents were compared. […] The devices and the conditions used for measuring the moisture contents are shown below.
Devices: • Trace moisture analyzer: CA-200, manufactured by Mitsubishi Chemical Analytech Co., Ltd. • Water vaporizer: VA-200 • Reagents: AQUAMICRON AX as anolyte and AQUAMICRON CXU as catholyte • Sample heating: 130° C. in an inert gas atmosphere (gas: N2, flow rate: 300 ml/min)

[2] = Solubility of crystals of Reb. D, amount dissolved (FIG. 6); settings: 300 mg in pure water (150 ml) at 7.5° C., stirring at 200 rpm, 0.45-um filter
Description: The crystals of Reb. D in the crystalline form α and the crystalline form β and a control (commercially available Reb. D in a stable form) were provided, to compare their solubilities. The crystal in the crystalline form α used was obtained by maintaining Reb. D at 50° C. for 1 hour, followed by appropriate N2 purge, and the crystal in the crystalline form β used was obtained by maintaining Reb. D at 100° C. for 1.5 hours, followed by appropriate N2 purge and then overnight cooling at normal temperature. The conditions for dissolution and sample preparation are shown below.
300 mg of Reb. D was added to pure water (150 ml) at 7.5° C., followed by stirring at 200 rpm, for dissolution.
(§1) Sample Preparation Conditions:
A 0.45-um filter was immersed in the solution for 30 seconds, and then a filtrate was obtained through the filter. 1 ml of the filtrate obtained was collected and diluted 10-fold with pure water.

[3] = Turbidity (NTU) and amount dissolved 40 minutes after dissolution (FIG. 7); settings: 90 mg in 150 ml pure water at 7.5° C., 350 rpm, 40 minutes later, versus control
Description: The “turbidity (NTU)” herein means the degree of turbidity when the Reb. D is dissolved in water, and the lower the turbidity means that the Reb. D is dissolved better. The turbidity can be measured by a known method, for example, using an existing absorptiometer.
Then, the solubilities were evaluated under the conditions varied. The crystal in the crystalline form α used was obtained by maintaining at 55° C. for 2 hours, followed by appropriate N2 purge and then natural cooling in vacuo. The dissolution conditions, the conditions of turbidity (NTU) measurement, and the sample preparation conditions are shown below.
90 mg of Reb. D was added to 150 ml of pure water (equivalent to 300 mg/500 ml) at 7.5° C., followed by stirring at 350 rpm for dissolution. The degree of dissolution was checked 40 minutes later.
Conditions of Turbidity (NTU) Measurement:
30 ml was collected 40 minutes later, and the turbidity (NTU) was measured. The turbidity was measured with an absorptiometer (2100AN, manufactured by Hach Company) by turbidimetry using formazin as a standard solution.
as §1
A 0.45-um filter was immersed in the solution for 6 seconds, and then a filtrate was obtained through the filter. 1 ml of the filtrate obtained was collected and diluted 10-fold with pure water.

[4] = Improvement in solubility by supplementary addition of crystal to saturated Reb. D solution (FIG. 9)
Description: Using the Reb. D in the crystalline form α, tests were conducted to confirm that the solubility of commercially available Reb. D was improved. […] First, commercially available Reb. D (in a stable form) was added to water to a saturated state. 24 hours later, the crystal of Reb. D in the crystalline form α was added to the saturated solution. Sampling was performed 24 hours later, 25 hours later, and 48 hours later, to check the amount of the Reb. D dissolved. […] D in the crystalline form α was added.

| moisture content [1] | amount dissolved as compared with the control (Cont) [2] | amount dissolved [3] | turbidity (NTU) [3] | persistence of the increase in amount dissolved ([4]; 24 hours after the crystal was added to the saturated solution) | amount of Reb. D dissolved after addition of the crystal to a saturated solution of commercially available Reb. D ([4]; crystal added 24 hours after saturation with stable form) | SMILES |
| --- | --- | --- | --- | --- | --- | --- |
| over 5 wt % | – | – | – | – | – | C=C1C[C@@]23CC[C@H]4[C@@](C)(CCC[C@@]4(C)C(=O)O[C@@H]4O[C@H](CO)[C@@H](O)[C@H](O)[C@H]4O[C@@H]4O[C@H](CO)[C@@H](O)[C@H](O)[C@H]4O)[C@@H]2CC[C@]1(O[C@@H]1O[C@H](CO)[C@@H](O)[C@H](O[C@@H]2O[C@H](CO)[C@@H](O)[C@H](O)[C@H]2O)[C@H]1O[C@@H]1O[C@H](CO)[C@@H](O)[C@H](O)[C@H]1O)C3 [control, rebaudioside D] |
| 0.67 wt % | increased | tended to increase | tended to be low | the increase continued | further increased | C=C1C[C@@]23CC[C@H]4[C@@](C)(CCC[C@@]4(C)C(=O)O[C@@H]4O[C@H](CO)[C@@H](O)[C@H](O)[C@H]4O[C@@H]4O[C@H](CO)[C@@H](O)[C@H](O)[C@H]4O)[C@@H]2CC[C@]1(O[C@@H]1O[C@H](CO)[C@@H](O)[C@H](O[C@@H]2O[C@H](CO)[C@@H](O)[C@H](O)[C@H]2O)[C@H]1O[C@@H]1O[C@H](CO)[C@@H](O)[C@H](O)[C@H]1O)C3 [crystalline form α, rebaudioside D] |
| 0.37 wt % | increased | – | – | – | – | C=C1C[C@@]23CC[C@H]4[C@@](C)(CCC[C@@]4(C)C(=O)O[C@@H]4O[C@H](CO)[C@@H](O)[C@H](O)[C@H]4O[C@@H]4O[C@H](CO)[C@@H](O)[C@H](O)[C@H]4O)[C@@H]2CC[C@]1(O[C@@H]1O[C@H](CO)[C@@H](O)[C@H](O[C@@H]2O[C@H](CO)[C@@H](O)[C@H](O)[C@H]2O)[C@H]1O[C@@H]1O[C@H](CO)[C@@H](O)[C@H](O)[C@H]1O)C3 [crystalline form β, rebaudioside D] |
